Data published in patent US20020052377A1, “Method for treating angina” (priority 2000, published 2002).
Read-outs that look alike come from different tables or passages of the source.

Key:
[1] = system: patients with chronic angina, with or without history of heart failure; test: MARISA exercise duration, patients with or without history of heart failure (HF); type: in vivo, human
Description: This Example evaluates the effectiveness of ranolazine (Ran) in human patients with chronic angina and a history of heart failure. The […] (Monotherapy Assessment of Ranolazine In Stable Angina) study randomized patients to Ran (500 mg, 1000 mg and 1500 mg bid) and placebo in a double-blind, 4 period, crossover design study. […] All patients performed a modified Bruce exercise test at the time of trough (morning) and peak (afternoon) drug levels on each treatment.

[2] = MARISA ranolazine plasma concentration; type: in vivo; conditions: human, oral; for concentration at 4 h: read-out: Ranolazine Plasma Concentration, Peak, mean (SD); for concentration at 12 h: read-out: Ranolazine Plasma Concentration, Trough, mean (SD)
Description: Methods: Patients withdrawn from other anti-anginal drugs with reproducible angina-limited exercise duration and ≧1 mm ST depression were randomized to Ran (500 mg bid, 1000 mg bit and 1500 mg bid) and matching placebo (Pbo) in a double-blind, four-period, Latin square crossover design. Exercise testing with a modified Bruce protocol was performed at both trough (12 hr after dosing) and peak (4 hr after dosing). Results: 49 centers in the USA, Czech Republic, Poland and Canada randomized 191 patients. 168 completed all 4 double-blind treatment periods; 7 more completed 3 of 4 periods.
Results: Ran improved exercise duration times in comparison to the placebo.

[3] = system: patients with chronic stable angina pectoris; test: Exercise treadmill test (ETT), IR ranolazine.2HCl, placebo-controlled crossover (Example 3); type: in vivo, human; conditions: for Time to onset angina (mean) / Exercise Duration (mean) / Time to 1 mm ST depression (mean): all patients
Description: In this Example, the safety and anti-ischemic effects of high plasma ranolazine levels in a large group of angina patients was evaluated and the duration of any effects during steady-state dosing with bid and tid regimens was assessed. In this Example, patients with chronic stable angina pectoris who were responsive to conventional antianginal drugs were treated with 3 ranolazine.2HCl dosing regimens: 267 mg tid, 400 mg bid and 400 mg tid IR Formulations of Example 1. Exercise testing parameters and ranolazine free base concentrations were determined at peak and trough plasma levels.
The study involved double-blind, placebo-controlled randomized treatment phase with 4 treatments (placebo, ranolazine.2HCl 400 mg bid, ranolazine.2HCl 267 mg tid, and ranolazine.2HCl 400 mg tid), 4 treatment sequences and 5 double-blind treatment periods in an extended period Latin square design on pre-qualified patients who were responsive to known antianginal therapy and had stable exercise times.
Human patients with chronic stable angina pectoris, of at least 3 months' duration, that had responded to conventional antianginal therapy were considered candidates. In addition, patients had to have electrocardiogrpahic (ECG) evidence of exercise-induced ischemia based upon horizontal or down-sloping ST-segment depression of ≧1 mm that persisted in 3 consecutive beats during an exercise stress test and an ECG pattern that would not interfere with interpretation of ST-segment changes. The latter criterion specifically excluded patients with left ventricular hypertrophy, pre-excitation, conduction abnormalities, or pacemaker rhythm. Other exclusion criteria included unstable angina or myocardial infarction within the preceding 3 months, heart failure defined as New York Heart Association Class HI or IV, significant valvular or congenital heart disease that was uncorrected, need for digoxin or long-acting nitrate therapy, labile diabetes mellitus, or other serious conditions that would confuse follow-up evaluation.
These immediate release ranolazine.2HCl dosing regimens (267 mg tid, 400 mg bid, 400 mg tid) and a placebo were administered during the treatment phase. Patients took one capsule containing either 267 mg or 400 mg of ranolazine dihydrochloride, or placebo at 8:00 a.m., 4:00 p.m., 8:00 p.m. and 12:00 a.m. All capsules were identical in appearance. Patients were randomized to 1 of 4 treatment sequences, with 25% of the patients assigned to each sequence. Each treatment was administered for 1 week, with one treatment repeated during a fifth 1 week period.
To qualify patients receiving their usual antianginal medications underwent a screening exercise treadmill test (ETT-1) using a Sheffield modified Bruce protocol. If the time to onset angina was […], an antianginal drug was withdrawn and treatment with single-blind placebo was initiated. After 1 to 2 weeks, patients returned for another ETT (ETT-2). If the time to onset angina decreased by 1 minute compared with ETT-1, the patient was considered to have completed the first qualifying ETT. If the decrease in time to onset angina was not ≧1 minute, a second antianginal drug could be withdrawn and the above sequence repeated. If necessary, a third antianginal drug could be withdrawn according to this procedure in order for the patient to qualify. Long-acting nitrates were always withdrawn first; beta-blockers; and calcium antagonists could be withdrawn in either order from patients not receiving long-acting nitrates. After the patient achieved the first qualifying ETT (ETT-2), a second qualifying ETT (ETT-3) was performed in which the time to onset angina had to be within i 15% of that observed during ETT-2. In addition, each of the qualifying ETTs had to have ECG signs of ischemia (≧1 mm horizontal or down-sloping ST-segment depression in 3 consecutive beats). Patients meeting these criteria were used in the study. […]

[4] = Peak, ranolazine.2HCl IR 267 mg tid
[5] = Peak, ranolazine.2HCl IR 400 mg bid
[6] = Peak, ranolazine.2HCl IR 400 mg tid
[7] = Trough, ranolazine.2HCl IR 267 mg tid
[8] = Trough, ranolazine.2HCl IR 400 mg bid
[9] = Trough, ranolazine.2HCl IR 400 mg tid

COc1ccccc1OCC(O)CN1CCN(CC(=O)Nc2c(C)cccc2C)CC1 (racemic) [Ranolazine, (±)-N-(2,6-dimethylphenyl)-4-[2-hydroxy-3-(2-methoxyphenoxy)propyl]-1-piperazine-acetamide]
LS mean ED ([1]; HF n=29, 500 mg bid, peak): 518 s | LS mean ED ([1]; HF n=29, 500 mg bid, trough): 512 s | LS mean ED ([1]; HF n=29, 1000 mg bid, peak): 520 s | LS mean ED ([1]; HF n=29, 1000 mg bid, trough): 514 s | LS mean ED ([1]; HF n=29, 1500 mg bid, peak): 545 s | LS mean ED ([1]; HF n=29, 1500 mg bid, trough): 524 s | LS mean ED ([1]; No HF n=146, 500 mg bid, peak): 538 s | LS mean ED ([1]; No HF n=146, 500 mg bid, trough): 539 s | LS mean ED ([1]; No HF n=146, 1000 mg bid, peak): 563 s | LS mean ED ([1]; No HF n=146, 1000 mg bid, trough): 551 s | LS mean ED ([1]; No HF n=146, 1500 mg bid, peak): 564 s | LS mean ED ([1]; No HF n=146, 1500 mg bid, trough): 563 s | concentration at 4 h ([2]; 500 mg BID): 1120 ng/mL | concentration at 12 h ([2]; 500 mg BID): 846 ng/mL | concentration at 4 h ([2]; 1000 mg BID): 2460 ng/mL | concentration at 12 h ([2]; 1000 mg BID): 1950 ng/mL | concentration at 4 h ([2]; 1500 mg BID): 3940 ng/mL | concentration at 12 h ([2]; 1500 mg BID): 3270 ng/mL | Time to onset angina (mean) ([3]; Peak (1 hour after dose), ranolazine.2HCl IR 267 mg tid): 9.40 min | Time to onset angina (mean) ([3]; Peak (1 hour after dose), ranolazine.2HCl IR 400 mg bid): 9.33 min | Time to onset angina (mean) ([3]; Peak (1 hour after dose), ranolazine.2HCl IR 400 mg tid): 9.33 min | Exercise Duration (mean) [3, 4]: 10.87 min | Time to 1 mm ST depression (mean) [3, 4]: 9.99 min | Exercise Duration (mean) [3, 5]: 10.83 min | Time to 1 mm ST depression (mean) [3, 5]: 9.86 min | Exercise Duration (mean) [3, 6]: 10.84 min | Time to 1 mm ST depression (mean) [3, 6]: 9.94 min | Time to onset angina (mean) ([3]; Trough (approx. 8 hours after dosing), ranolazine.2HCl IR 267 mg tid): 8.78 min | Time to onset angina (mean) ([3]; Trough (approx. 8 hours after dosing), ranolazine.2HCl IR 400 mg bid): 8.77 min | Time to onset angina (mean) ([3]; Trough (approx. 8 hours after dosing), ranolazine.2HCl IR 400 mg tid): 8.65 min | Exercise Duration (mean) [3, 7]: 10.56 min | Time to 1 mm ST depression (mean) [3, 7]: 9.22 min | Exercise Duration (mean) [3, 8]: 10.55 min | Time to 1 mm ST depression (mean) [3, 8]: 9.22 min | Exercise Duration (mean) [3, 9]: 10.60 min | Time to 1 mm ST depression (mean) [3, 9]: 9.31 min | threshold plasma ranolazine free base concentration for anti-ischemic activity detected during ETT ([3]; estimated from peak and trough results): above 550 ng per mL | prolongation of time to onset of angina, duration of exercise and time to 1-mm ST-segment depression over placebo, on average ([3]; peak plasma concentrations, three dosing regimens): about 0.33 minutes
